Data: US8691576B2, “Regeneration and mass propagation of Jatropha curcas through somatic embryogenesis” (Joil (S) Pte Ltd., priority 2008, dated 2014)

How the values were obtained:
Type in all cases: cell-based
[1] = tested on: Jatropha curcas immature zygotic embryo and endosperm explants; assay: Effect of 2,4-D concentration and zygotic embryo size on somatic embryo and calli formation; design: key to Explant Development Root Length / Explant Development Hypocotyl Length / Explant Development Calli Size: The relative size of explants and calli are indicated by the number of + symbols.; ++: The relative size of explants and calli are indicated by the number of + symbols.; +++: The relative size of explants and calli are indicated by the number of + symbols.; ++++: The relative size of explants and calli are indicated by the number of + symbols.; +++++: The relative size of explants and calli are indicated by the number of + symbols; settings: end of 3rd week
Procedure: Developing fruits were surfaced-sterilized and dissected to yield 200 immature zygotic embryos that were shorter than 1.5 cm in length. The embryos were separated into two groups, “<0.5 cm” and “0.5-1.5 cm”. The endosperm and zygotic embryo explants were cultured on solid media with various concentration of 2,4-D. On the 5th day, the embryos, which became greenish, enlarged and hardened, were removed from the endosperms and cut into small pieces of about 0.25 cm^2 each. The endosperm and embryo explants were cultured separately on the same media in the dark at 28° C. It was confirmed that most somatic embryos were produced on the endosperm explants where the embryos had been detached. It is apparent that, although 2,4-D was not essential for initiation of somatic embryos; […] concentration of it causes excessive expansion of explants.

[2] = tested on: Jatropha curcas zygotic embryo and endosperm explants; assay: Type I somatic embryo (TISE) formation on solid media with 2,4-D; settings: for TISE (%) / TISE Count: 0.1 mg/l kinetin, 8 weeks
Procedure: Developing fruits were surfaced sterilized. The immature zygotic embryos and endosperms (En) were separated from each other using a surgical scalper blade. Zygotic embryos longer than 0.5 cm were further cut at the cotyledon-hypocotyl junction to produce explants of cotyledons only and hypocotyls with the root radicals. Zygotic embryos shorter than 0.5 cm were cultured intact as they are too fragile. We classified these explants as cotyledons (Cot); hypocotyls with root radicals (Rh); intact embryos (Eb) and endosperm (En).
The explants were cultured on a solid medium comprising MS salt, B5 vitamins and various concentrations of 2,4-D ranging from 0.1 to 20 mg/L. Kinetin was added at 0.1 mg/L in some of the treatments. Somatic embryos started to emerge without obvious sign of calli formation around 10th day, which predominantly formed on the edge of the endosperm tissues where the embryo had been detached. The somatic embryos most likely originated from the residual diploid cells of the zygotic embryo tissue attached on the endosperm. […] These somatic embryos developed speedily and predominantly matured as single embryo (FIG. 1). We called them Type I Somatic Embryo (TISE).

[3] = tested on: Jatropha curcas calli from zygotic embryo explants; assay: Type II somatic embryo (TIISE) formation after shifting calli to hormone-free DGA medium; settings: then DGA medium 6 weeks
Procedure: Yellowish or white calli were observed on the explants from 3rd week if subcultured in the same medium. Extensively tested variables for induction of somatic embryogenesis were media of numerous compositions. Combinations of MS salt, Gamborg B5 salts, MS vitamins, Gamborg B5 vitamins; presence or absence of NH4NO3; amount of KNO3 (1.9-3.8 g/l); organic nitrogen source, e.g., free amino acids, casein hydrolysate; trace amount of hormones, e.g., kinetin (0-1 mg/l), benzyl adenine (0-1 mg/l); choice of carbon sources, e.g., glucose, sucrose and maltose; and activated carbon (5 g/l). In a large number of media, the calli died within 1-2 weeks when shifted into a new medium. […] An example of the medium is DGA medium in which 1 g/l glutamine and 0.5 g/l asparagines was supplemented. A cluster of somatic embryos of various stages emerged around the 10th day after the medium shift to DGA (FIG. 2).
Somatic embryos formed in DGA medium underwent multiplication and maturation simultaneously. We called them Type II Somatic Embryos (TIISE). TIISEs were preferentially formed on explants previously cultured in media containing higher concentration of 2,4-D, for example, 2-5 mg/l during the first induction culture (Table 1).

## O=C(O)COc1ccc(Cl)cc1Cl [2,4-D, 2,4-dichlorophenoxyacetic acid]
[1]; 2,4-D 0.1 mg/L
  Explant Development Calli Size: ++
  Explant Development Hypocotyl Length: +++++
  Explant Development Root Length: ++++
[1]; 2,4-D 0.2 mg/L
  Explant Development Calli Size: ++
  Explant Development Hypocotyl Length: ++++
  Explant Development Root Length: +++
[1]; 2,4-D 0.5 mg/L
  Explant Development Calli Size: +++
  Explant Development Hypocotyl Length: +++
  Explant Development Root Length: ++
[1]; 2,4-D 1 mg/L
  Explant Development Calli Size: ++++
  Explant Development Hypocotyl Length: +++
  Explant Development Root Length: ++
[1]; 2,4-D 2 mg/L
  Explant Development Calli Size: ++++
  Explant Development Hypocotyl Length: +
  Explant Development Root Length: +
[1]; 2,4-D 5 mg/L
  Explant Development Calli Size: +++
  Explant Development Hypocotyl Length: +
  Explant Development Root Length: +
[1]; 2,4-D 10 mg/L
  Explant Development Calli Size: +++
  Explant Development Hypocotyl Length: +
  Explant Development Root Length: +
[1]; 2,4-D 15 mg/L
  Explant Development Calli Size: ++
  Explant Development Hypocotyl Length: +
  Explant Development Root Length: +
[1]; 2,4-D 20 mg/L
  Explant Development Calli Size: +
  Explant Development Hypocotyl Length: +
  Explant Development Root Length: +
[1]
  Calli formation: more favorable at about 0.5-10 mg/l
[2]; 2,4-D 0.1 mg/L
  TISE (%): 84%
[2]; 2,4-D 0.1 mg/L, 19 explants
  TISE Count: 16
[2]; 2,4-D 0.2 mg/L
  TISE (%): 54%
[2]; 2,4-D 0.2 mg/L, 28 explants
  TISE Count: 15
[2]; 2,4-D 0.5 mg/L
  TISE (%): 50%
[2]; 2,4-D 0.5 mg/L, 16 explants
  TISE Count: 8
[2]; 2,4-D 1 mg/L
  TISE (%): 42%
[2]; 2,4-D 1 mg/L, 19 explants
  TISE Count: 8
[2]; 2,4-D 2 mg/L
  TISE (%): 76%
[2]; 2,4-D 2 mg/L, 25 explants
  TISE Count: 19
[2]; 2,4-D 5 mg/L
  TISE (%): 57%
[2]; 2,4-D 5 mg/L, 23 explants
  TISE Count: 13
[2]; 2,4-D 10 mg/L
  TISE (%): 43%
[2]; 2,4-D 10 mg/L, 21 explants
  TISE Count: 9
[2]; 2,4-D 20 mg/L
  TISE (%): 38%
[2]; 2,4-D 20 mg/L, 13 explants
  TISE Count: 5
[2]; 2,4-D 0.1 to 20 mg/L
  TISE formation: appeared to be inhibitory at high levels
[3]; 2,4-D 0.1 mg/L 4 weeks
  TIISE (%): 11%
[3]; 2,4-D 0.1 mg/L 4 weeks, 19 explants
  TIISE Count: 2
[3]; 2,4-D 0.2 mg/L 4 weeks
  TIISE (%): 4%
[3]; 2,4-D 0.2 mg/L 4 weeks, 28 explants
  TIISE Count: 1
[3]; 2,4-D 0.5 mg/L 4 weeks
  TIISE (%): 19%
[3]; 2,4-D 0.5 mg/L 4 weeks, 16 explants
  TIISE Count: 3
[3]; 2,4-D 1 mg/L 4 weeks
  TIISE (%): 0%
[3]; 2,4-D 1 mg/L 4 weeks, 19 explants
  TIISE Count: 0
[3]; 2,4-D 2 mg/L 4 weeks
  TIISE (%): 36%
[3]; 2,4-D 2 mg/L 4 weeks, 25 explants
  TIISE Count: 9
[3]; 2,4-D 5 mg/L 4 weeks
  TIISE (%): 39%
[3]; 2,4-D 5 mg/L 4 weeks, 23 explants
  TIISE Count: 9
[3]; 2,4-D 10 mg/L 4 weeks
  TIISE (%): 24%
[3]; 2,4-D 10 mg/L 4 weeks, 21 explants
  TIISE Count: 5
[3]; 2,4-D 20 mg/L 4 weeks
  TIISE (%): 23%
[3]; 2,4-D 20 mg/L 4 weeks, 13 explants
  TIISE Count: 3
